As a reminder, the logP is the decadic logarithm of the partition coefficient of the neutral form, usually between octanol and water.

With `COC(=O)CSc1ccc([N+](=O)[O-])cc1[N+](=O)[O-]`, the logP worked out at 2.05.
In the case of `CC(C)OC(=O)CS(=O)c1ccc([N+](=O)[O-])cc1` (configuration not stated) it was 1.64; in that of `CC(C)OC(=O)CS(=O)c1ccc(Cl)cc1[N+](=O)[O-]` (configuration not stated), 2.22; in that of `COC(=O)CSc1ccc(Cl)cc1[N+](=O)[O-]`, 2.24.
As for `CC(C)OC(=O)CSc1ccc(Cl)cc1[N+](=O)[O-]`, the figure is 3; as for `COC(=O)CS(=O)c1ccc([N+](=O)[O-])cc1` (configuration not stated), 0.8.
In the case of `CC(C)OC(=O)CS(=O)c1ccccc1[N+](=O)[O-]` (configuration not stated) it was 1.59.
In the case of `COC(=O)CS(=O)c1ccc([N+](=O)[O-])cc1[N+](=O)[O-]` (configuration not stated), the lipophilicity (logP) is 0.63.
In the case of `COC(=O)CSc1ccc([N+](=O)[O-])cc1Cl` it was 2.26; in that of `CC(C)OC(=O)CS(=O)(=O)c1ccc([N+](=O)[O-])cc1`, 1.8; in that of `COC(=O)CS(=O)(=O)c1ccc(Cl)cc1[N+](=O)[O-]`, 1.3.
In the case of `CC(C)OC(=O)CS(=O)c1ccc([N+](=O)[O-])cc1[N+](=O)[O-]` (configuration not stated) it was 1.61; in that of `COC(=O)CS(=O)c1ccc([N+](=O)[O-])cc1Cl` (configuration not stated), 1.35.
As for `COC(=O)CS(=O)c1ccccc1[N+](=O)[O-]` (configuration not stated), the figure is 0.74.
The compound `COC(=O)CS(=O)(=O)c1ccc([N+](=O)[O-])cc1Cl` showed a log partition coefficient (logP) of 1.45.
In the case of `CC(C)OC(=O)CS(=O)(=O)c1ccc([N+](=O)[O-])cc1Cl` it was 2.4.
As for `COC(=O)CS(=O)(=O)c1ccc([N+](=O)[O-])cc1`, the figure is 0.78; as for `CC(C)OC(=O)CSc1ccc([N+](=O)[O-])cc1`, 2.79.
In the case of `COC(=O)CS(=O)(=O)c1ccccc1[N+](=O)[O-]` it was 0.78; in that of `COC(=O)CS(=O)c1ccc(Cl)cc1[N+](=O)[O-]` (configuration not stated), 1.29.
Consider `CC(C)OC(=O)CS(=O)(=O)c1ccc(Cl)cc1[N+](=O)[O-]`, for which the logP worked out at 2.45.
In the case of `CC(C)OC(=O)CS(=O)c1ccc([N+](=O)[O-])cc1Cl` (configuration not stated) it was 2.01; in that of `CC(C)OC(=O)CS(=O)(=O)c1ccccc1[N+](=O)[O-]`, 1.72; in that of `CC(C)OC(=O)CSc1ccccc1[N+](=O)[O-]`, 2.76.
As for `CC(C)OC(=O)CSc1ccc([N+](=O)[O-])cc1[N+](=O)[O-]`, the figure is 2.81; as for `COC(=O)CSc1ccccc1[N+](=O)[O-]`, 1.88; as for `CC(C)OC(=O)CSc1ccc([N+](=O)[O-])cc1Cl`, 3.2.
